Laboratory results published in patent US20260355137A1, “NOVEL OPHTHALMIC FORMULATION” (FERTIS INDIA PVT LTD, priority 2022, published 2026).
Entries after “also recorded” stand apart in the source; their conditions may differ.

Key:
Assay type in all cases: in vivo, New Zealand rabbit
[1] = test system: intraocular pressure, induced left eye; experiment: Intraocular pressure, tonometer (Table 13); design: unit not given beside the values; settings: left eye induced/treated
Experimental: (§1) Cataract was induced by injecting 0.5% Methyl Cellulose, which is replaced by aqueous humor in the rabbit eye (i.e., 0.2 mL of Aqueous humor was withdrawn and the same 0.2 mL of 0.5% Methyl cellulose was injected as a replacement). Cataract was observed within 3-4 days of 0.5% Methyl cellulose replacement. Cataract induction was performed to left eye and right eye was served as a control.
(§2) Rabbits were observed by ophthalmoscope and slit lamp once in three days for cataract confirmation. Intraocular pressure was measured with a tonometer once in three days for the confirmation of glaucoma.
(§3) Intra-ocular pressures were measured in animals in each group once in three days using a Tonometer. The readings were documented for each eye separately.

[2] = test system: cataract induced left eye; experiment: Macroscopic examination, cataract induced left eye (cinnamic acid derivatives, Tables 10-11); settings: left eye (cataract induced), macroscopic; for No Abnormality Detected, incidence: animals affected/6
Experimental: (§4) An illustrative ophthalmic formulation for treatment of eye disease is set forth below: The formulations provided herein below are tested in cataract induced New Zealand rabbits, and the results are discussed herein below.
as §1, §2

[3] = test system: cataract induced left eye: lens; experiment: Microscopic observations (histopathology) of lens (Table 12); settings: left eye (cataract induced)
Experimental: as §4, §1
(§5) All surviving animals were euthanized on Day 29 by overdose of Thiopental Sodium. Before scheduled euthanasia, the animals were fasted overnight (water allowed) and terminal body weights were recorded. Animals were subjected to detailed macroscopic observation during necropsy. Both right (untreated/uninduced) and left (treated/induced) eyes were collected and cornea and lens were separated, preserved in Davidson fluid. Cornea and lens selected for histopathological evaluation were processed, embedded and sections were cut at 3-5 μm thickness, Sections were placed on grease-free slides and stained with Hematoxylin and Eosin. A 5-step grading system of minimum, mild, moderate, marked and severe will be used to rank microscopic findings for comparison among groups. Data was compiled based on incidences and severity of changes.

[4] = test system: intraocular pressure, glaucoma-induced left eye; experiment: Intraocular pressure, tonometer (Table 17); settings: for Intraocular pressure, Mean, Left eye: Left (induced) eye; for Intraocular pressure, Mean, Left eye / Intraocular pressure, Mean, Right eye: male, 6 animals/group; for intraocular pressure following treatment / mean intraocular pressure initially measured: induced left eye; for intraocular pressure following treatment: 28-day treatment regimen, 0.5%; for mean intraocular pressure initially measured: six animals, within three days
Experimental: as §1, §2, §3

[5] = test system: cataract induced left eye: lens and cornea; experiment: Microscopic examination (histopathology) of lens and cornea (Table 16); settings: for cataract efficacy, histopathology (in words): Table 16
Experimental: as §4, §1, §5

[6] = test system: cataract induced left eye; experiment: Macroscopic examination, cataract induced left eye (Tables 14-15); settings: for cataract efficacy, macroscopic (in words): Table 15; for No Abnormality Detected, incidence: left eye (cataract induced), macroscopic
Experimental: as §4, §1, §2

[7] = test system: cataract and intraocular pressure/glaucoma in induced rabbit eye; experiment: Overall efficacy in cataract reduction and reducing intraocular pressure; settings: third study; cataract reduction and reducing intraocular pressure, highest to lowest
Experimental: as §4
The following preclinical studies were conducted in rabbit model to test the efficacy of various active ingredients.
as §1, §2

[8] = Day 28, ↓↓ = Significantly low at P ≤ 0.01 compared to respective control

O=C(/C=C/c1ccc(O)c(O)c1)OCCc1ccccc1 [Caffeic Acid Phenyl ethyl Ester, caffeic acid phenylethyl ester]
Intraocular Pressure, mean ([1]; Day 3): 88.07 | Intraocular Pressure, mean ([1]; Day 6): 84.95 | Intraocular Pressure, mean ([1]; Day 9): 84.67 | Intraocular Pressure, mean ([1]; Day 12): 55.95 | Intraocular Pressure, mean ([1]; Day 15): 42.80 | Intraocular Pressure, mean ([1]; Day 18): 42.18 | Intraocular Pressure, mean ([1]; Day 21): 40.93 | Intraocular Pressure, mean ([1]; Day 24): 39.67 | Intraocular Pressure, mean ([1]; Day 27): 36.27 | Intraocular Pressure, mean ([1]; Day 30): 39.42 | Intraocular Pressure, mean ([1]; Day 33): 41.85↓↓ | Opacity, cornea and red discoloured, with diffuse opacity: Moderate, incidence [2]: 4/6 | Opacity, cornea, diffuse: Minimal, incidence [2]: 1/6 | Opacity, cornea, diffuse: Moderate, incidence [2]: 1/6 | No Abnormality Detected, incidence [2]: 0/6 | Within Normal Histological Limits, incidence [3]: 0/6 | Epithelial proliferation, incidence ([3]; lens): 6/6 | Lenticular Degeneration, incidence ([3]; lens): 6/6 | Liquefaction, incidence ([3]; lens): 6/6 | Epithelial proliferation: Marked, incidence ([3]; lens, number of animals): 1 | Epithelial proliferation: Mild, incidence ([3]; lens, number of animals): 3 | Epithelial proliferation: Minimal, incidence ([3]; lens, number of animals): 2 | Liquefaction: Mild, incidence ([3]; lens, number of animals): 2 | Liquefaction: Moderate, incidence ([3]; lens, number of animals): 4

O=C(/C=C/c1ccc(O)c(O)c1)NCCc1ccccc1 [Caffeic Acid Phenylethyl Amide, caffeic acid phenylethyl amide]
Intraocular Pressure, mean ([1]; Day 3): 86.65 | Intraocular Pressure, mean ([1]; Day 6): 79.88 | Intraocular Pressure, mean ([1]; Day 9): 78.77 | Intraocular Pressure, mean ([1]; Day 12): 72.72 | Intraocular Pressure, mean ([1]; Day 15): 50.78 | Intraocular Pressure, mean ([1]; Day 18): 49.95 | Intraocular Pressure, mean ([1]; Day 21): 45.67 | Intraocular Pressure, mean ([1]; Day 24): 49.77 | Intraocular Pressure, mean ([1]; Day 27): 36.27 | Intraocular Pressure, mean ([1]; Day 30): 25.85 | Intraocular Pressure, mean ([1]; Day 33): 36.68↓↓ | Opacity, cornea and red discoloured, with diffuse opacity: Moderate, incidence [2]: 1/6 | Opacity, cornea, diffuse: Mild, incidence [2]: 2/6 | Opacity, cornea, diffuse: Minimal, incidence [2]: 3/6 | No Abnormality Detected, incidence [2]: 0/6 | Within Normal Histological Limits, incidence [3]: 0/6 | Epithelial proliferation, incidence ([3]; lens): 2/6 | Epithelial proliferation: Absent, incidence ([3]; lens): 4/6 | Lenticular Degeneration, incidence ([3]; lens): 5/6 | Liquefaction, incidence ([3]; lens): 5/6 | Liquefaction: Absent, incidence ([3]; lens): 1/6 | Epithelial proliferation: Mild, incidence ([3]; lens, number of animals): 2 | Liquefaction: Mild, incidence ([3]; lens, number of animals): 2 | Liquefaction: Minimal, incidence ([3]; lens, number of animals): 3

O=C(O[C@@H]1Cc2c(O)cc(O)cc2O[C@@H]1c1cc(O)c(O)c(O)c1)c1cc(O)c(O)c(O)c1 [Epigallocatechin Gallate, (2R,3R)-2-(3,4,5-trihydroxyphenyl)-3,4-dihydro-1(2H)-benzopyran-3,5,7-triol 3-(3,4,5-trihydroxy benzoate)]
Intraocular pressure, Mean, Left eye ([4]; Day 3): 29.72 mmHg | Intraocular pressure, Mean, Left eye ([4]; Day 6): 33.06 mmHg | Intraocular pressure, Mean, Left eye ([4]; Day 9): 26.56 mmHg | Intraocular pressure, Mean, Left eye ([4]; Day 12): 32.50 mmHg | Intraocular pressure, Mean, Left eye ([4]; Day 15): 26.39 mmHg | Intraocular pressure, Mean, Left eye ([4]; Day 18): 28.94 mmHg | Intraocular pressure, Mean, Left eye ([4]; Day 21): 27.11 mmHg | Intraocular pressure, Mean, Left eye ([4]; Day 25): 25.56 mmHg | Intraocular pressure, Mean, Left eye [4, 8]: 20.00↓↓ mmHg | Intraocular pressure, Mean, Right eye ([4]; Day 3): 18.11 mmHg | Intraocular pressure, Mean, Right eye ([4]; Day 6): 16.94 mmHg | Intraocular pressure, Mean, Right eye ([4]; Day 9): 16.78 mmHg | Intraocular pressure, Mean, Right eye ([4]; Day 12): 17.00 mmHg | Intraocular pressure, Mean, Right eye ([4]; Day 15): 12.56 mmHg | Intraocular pressure, Mean, Right eye ([4]; Day 18): 16.61 mmHg | Intraocular pressure, Mean, Right eye ([4]; Day 21): 16.06 mmHg | Intraocular pressure, Mean, Right eye ([4]; Day 25): 18.17 mmHg | Intraocular pressure, Mean, Right eye ([4]; Day 28): 16.11 mmHg | intraocular pressure following treatment [4]: 20.00 mmHg | mean intraocular pressure initially measured [4]: 29.72 mmHg | cataract efficacy, histopathology (in words) [5]: fully restored, or regenerated in all 6 out of 6 animals, transitioning from severe degeneration to a milder state; also recorded: Only one animal exhibited mild corneal inflammation | Cornea, Inflammation: Mild, incidence ([5]; left eye induced): 1/6 | Lens, Liquefaction: Mild, incidence ([5]; left eye induced): 6/6 | cataract efficacy, macroscopic (in words) [6]: complete recovery in all 6 animals, with no observable cataracts | No Abnormality Detected, incidence [6]: 6/6 | overall efficacy / order of efficacy (in words) [7]: outstanding efficacy in reducing cataracts and also demonstrated a significant capability to address glaucoma; also recorded: Caffeic Acid G3>Epigallocatechin Gallate G4>Encapsulated Feruloyl Tyramine G5>Ferulic Acid G6>Rosmarinic Acid+Caffeic Acid G2

COc1cc(/C=C/C(=O)O)ccc1O [Ferulic acid]
Intraocular pressure, Mean, Left eye ([4]; Day 3): 30.39 mmHg | Intraocular pressure, Mean, Left eye ([4]; Day 6): 28.39 mmHg | Intraocular pressure, Mean, Left eye ([4]; Day 9): 28.28 mmHg | Intraocular pressure, Mean, Left eye ([4]; Day 12): 25.33 mmHg | Intraocular pressure, Mean, Left eye ([4]; Day 15): 26.00 mmHg | Intraocular pressure, Mean, Left eye ([4]; Day 18): 26.56 mmHg | Intraocular pressure, Mean, Left eye ([4]; Day 21): 23.22 mmHg | Intraocular pressure, Mean, Left eye ([4]; Day 25): 21.72 mmHg | Intraocular pressure, Mean, Left eye [4, 8]: 23.67↓↓ mmHg | Intraocular pressure, Mean, Right eye ([4]; Day 3): 17.28 mmHg | Intraocular pressure, Mean, Right eye ([4]; Day 6): 16.89 mmHg | Intraocular pressure, Mean, Right eye ([4]; Day 9): 16.89 mmHg | Intraocular pressure, Mean, Right eye ([4]; Day 12): 17.56 mmHg | Intraocular pressure, Mean, Right eye ([4]; Day 15): 14.94 mmHg | Intraocular pressure, Mean, Right eye ([4]; Day 18): 14.94 mmHg | Intraocular pressure, Mean, Right eye ([4]; Day 21): 17.06 mmHg | Intraocular pressure, Mean, Right eye ([4]; Day 25): 17.61 mmHg | Intraocular pressure, Mean, Right eye ([4]; Day 28): 17.28 mmHg | intraocular pressure following treatment [4]: 23.67 mmHg | mean intraocular pressure initially measured [4]: 30.39 mmHg | cataract efficacy, histopathology (in words) [5]: minimal to moderate lenticular degeneration | Lens, Liquefaction: Mild, incidence ([5]; left eye induced): 4/6 | Lens, Liquefaction: Minimal, incidence ([5]; left eye induced): 1/6 | Lens, Liquefaction: Moderate, incidence ([5]; left eye induced): 1/6 | cataract efficacy, macroscopic (in words) [6]: complete recovery from cataracts in all 6 animals | No Abnormality Detected, incidence [6]: 6/6 | overall efficacy / order of efficacy (in words) [7]: Caffeic Acid G3>Epigallocatechin Gallate G4>Encapsulated Feruloyl Tyramine G5>Ferulic Acid G6>Rosmarinic Acid+Caffeic Acid G2
